According to patent US6362233B1, “Methoxy capped alkoxylated glycerin compounds” (Phoenix Research Corporation, priority 2001, dated 2002):

Assay: Hydrolysis stability test: 10% test material in solution adjusted to pH 5 with lactic acid, placed at 50 C. for 5 days
Format: physicochemical
Details: pH adjusted to 5 with lactic acid
Description: The compounds of the present invention are stable to hydrolysis and provide emollient properties to skin. Typical of the stability of the compounds of the present invention compared to acetate salts is as follows:
pH adjusted to 5 with lactic acid.
10% test material added to get solution.
Placed at 50 C. for 5 days.

Row | Substance | Result (stability to hydrolysis)
1 | Glycereth-7-Methoxy capped | Stable clear liquid
2 | Glycereth-7-acetate | Acetic smell, hydrolyzed
